The values that follow come from US9808434B2, “Compound for treating cancer and diabetes” (CITY OF HOPE, priority 2011, dated 2017).

Each structure is given as a SMILES string.

One may read the IC50 as the concentration that inhibits the measured activity by half. Low readings indicate inhibition by little substance, high ones a need for much substance.

For one data set, the system named is SK-Mel-31. Put plainly: Colony formation assay, SK-Mel-31. The conditions noted are these: 5 μM. It counts as cell-based, human. As for the experimental part:
(§1) Cell survival was evaluated using a standard colony-forming assay. In total, 1×10^5 cells/mL were incubated with COH-SR4 (1.5 μM or 5 μM) or elesclomol (5 μM) for 24 h, and aliquots of 50 or 100 μL were added to 60 mm size petri dishes, containing 4 mL culture medium. After 7 or 10 days, adherent colonies were fixed, stained with 0.5% methylene blue for 30 min and colonies were counted using the Innotech Alpha Imager HP (91).

For the next data set, the system named is H520 cells. Put plainly: MTT assay, H520. Format: cell-based. The conditions noted are these: Homo sapiens, NCI-H520, 48 h. As for the experimental part: (§2) Cell density measurements were performed using a hemocytometer to count reproductive cells resistant to staining with trypan blue. Approximately 20,000 cells were plated into each well of 96-well flat-bottomed micro-titer plates. After 12 h or 24 h incubation at 37° C., medium containing either COH-SR4 (ranging 0-200 μM) or elesclomol (ranging 0-20 μM) were added to the cells. After 24 h, 48 h or 96 h incubation, 20 μL of 5 mg/mL MTT were introduced to each well and incubated for 2 h. The plates were centrifuged and medium was decanted. Cells were subsequently dissolved in 100 μl DMSO with gentle shaking for 2 h at room temperature, followed by measurement of OD570 (91).
The effect of COH-SR4 was first examined in a NCI panel of cancer cell lines, the results of which indicated good activity of COH-SR4 towards lung cancer (FIG. 78A). […] Values are presented as mean±SD from two separate determinations with eight replicates each (n=16) (FIG. 78B). […] Standard colony-forming assay was performed and the colonies were counted using Innotech Alpha Imager HP. […] TUNEL assay was performed using Promega fluorescence detection kit and examined using Zeiss LSM 510 META laser-scanning fluorescence microscope with filters 520 and 620 nm. […]
Background: Tetrazolium dyes change colour on reduction, which living cells bring about.

For data set [1], the system named is A2058, A101D and SK-Mel-28 melanoma cells. The experiment in a line: Mitochondrial ROS, MitoSox Red. It counts as cell-based, human. To be noted: 5 μM, 1 h. As for the experimental part:
Briefly, cells (4×10^5 well) were seeded in a 6-well plate and incubated overnight. Twenty-four hours after plating, cells were treated with test compounds as indicated in each experiment. After washing with pre-warmed PBS, cells were incubated with fresh medium containing 5 μM MitoSox Red for 15 min at 37° C. The fluorescence intensity was measured at of 530ex/590em using flow cytometry (Cyan ADP). The cells only sample (no MitoSox dye added) was used as the background. Approximately 30,000 counts were made for each sample. Experiments were repeated for three times and at least duplicate samples were included in each experiment.
Mitochondrial ROS was measured by MitoSox Red according to the manufacturer's instructions (Molecular Probes, CA). The intensity of fluorescence was quantified by digital analysis of images obtained from confocal microscopy using Image Pro Premiere software (Media Cybernetics Inc., Bethesda, Md.) (A2058, FIG. 74A) or by flow cytometry (FIG. 74B). Cells were treated with either 5 μM of COH-SR4, rotenone (mitochondrial complex 1 inhibitor) or elesclomol for 1 h. *Results represent fold increase of ROS generation over control and are expressed as mean±SD from three independent experiments.

A further data set concerns HRE promoter. The experiment in a line: HRE promoter luciferase reporter in U251. It counts as cell-based. The conditions noted are these: U251, 1 or 3 μM, 24 hours, normoxic and hypoxic. On the procedure:
U251 cells were transfected with plasmids expressing luciferase reporter genes driven by a HRE reporter plasmid containing five copies of the HRE site (5×HRE). Transfected cells were then incubated with COH-SR4 at various concentrations (0, 1, or 3 μM) for 24 hours and assayed for luciferase activities. Data were represented as a ratio to vehicle control that was treated by DMSO.

Another data set deals with GST. The experiment in a line: Total GST activity towards CDNB in H358 tumor tissue lysates. It counts as in vivo. To be noted: n=3; control 0.32±0.03. From the text:
The effect of COH-SR4 on signaling pathways of relevance to lung cancer progression was further analyzed by Western-blots of lysates from resected tumors (as described in Example 31). GAPDH was used as internal control. The bar diagrams (FIG. 82B) represent the fold change in the levels of proteins as compared to the controls as determined by densitometry. Dotted line represents no significant change observed when compared to the controls. The COH-SR4 treated groups had high levels of cleaved-PARP compared to the untreated controls, which reinforces the finding of apoptotic effect as observed in-vitro by TUNEL assay. Akt is a signaling protein that transduces the proliferative signals from upstream integrins and growth factor receptors. The COH-SR4 treatments increased the levels of PARP cleavage along with decreased levels of pAkt (S^473). […] In accordance with decreased levels of pAkt (S^473), the levels of pP70S6K were decreased in COH-SR4 treated groups compared to controls. […] COH-SR4 treated tumor tissue lysates were analyzed to test the impact of long term COH-SR4 treatment in vivo on GST expression and activity. […] The total GST activity as measured by activity towards CDNB as a substrate, in COH-SR4 treated tumor tissue lysates was lower compared to the controls [control, 0.32±0.03 U/mg protein; COH-SR4 treated, 0.21±0.05 U/mg protein; (n=3)]. […]

Data set [2] deals with normal human aortic vascular smooth muscle cells (HAVSMC). Put plainly: MTT assay, HAVSMC. It counts as cell-based. On the procedure:
as §2

For data set [3], the system named is B16-F0 and A2058 melanoma cells. Put plainly: TUNEL apoptosis assay, melanoma. It counts as cell-based. The conditions noted are these: 24 h. As for the experimental part:
For TUNEL assay, 1×10^5 cells were grown on the cover slips for ˜12 h followed by treatment with COH-SR4 (5 μM or 10 μM) or elesclomol (5 μM) for 24 h. Apoptosis was determined by the labeling of DNA fragments with terminal deoxynucleotidyl-transferase dUTP nick-end labeling (TUNEL) assay using Promega fluorescence apoptosis detection system, and examined using Zeiss LSM 510 META laser scanning fluorescence microscope with filters 520 and 620 nm according to the protocol described previously (91). Photographs taken at identical exposure at ×400 magnification are presented.

The subject of a further data set is NHDF. Put plainly: Colony formation assay, NHDF. It counts as cell-based, human. To be noted: FIG. 67B, 5 μM, vs untreated control. On the procedure: as §1

As to `O=C(Nc1cc(Cl)cc(Cl)c1)Nc1cc(Cl)cc(Cl)c1` [COH-SR4, 1,3-bis(3,5-dichlorophenyl) urea], in the data set on SK-Mel-31, the colony formation came out at 40±4%. For the same compound, the IC50 with H520 cells was determined as 2400 ± 300 nM. For the same compound, the “mitochondrial ROS production (MitoSox Red)” value in data set [1] is listed as “induced ROS production”. For the same compound, the “luciferase expression driven by HRE promoter” value in the data set with HRE promoter is “inhibited luciferase expression driven by HRE promoter”. Besides, the “total GST activity towards CDNB” value in the data set with GST is reported as 0.21±0.05 U/mg protein. For the same compound, the “cytotoxicity in normal cells” value in data set [2] (96 h) is listed as “did not cause any significant cytotoxicity”; in data set [2] (concentrations effective in lung cancer cell lines, 48 h) it was “did not exert any significant cytotoxicity”. The “apoptosis (DNA fragmentation, TUNEL)” value in data set [3] (5 μM) and in data set [3] (10 μM) was “induced apoptosis” throughout. Further, the colony forming potential in the data set on NHDF is on record as 97±3%.
